SMILES strings stand for the structures. Numbered stars: 1 amine (or outer) side, 2 acyl side, 3 side chain; on linkers, the order of the positions; unused ones are H or OH. Square brackets hold non-standard residues; d marks the D form. Peptide text beside a SMILES is read from it. * marks the point of attachment. DOTA(Lu)NH(CH2)6NHCOCH2 = O=C(CN1CCN2CCN3CCN(CC1)CC(=O)[O][Lu]([O]C(=O)C2)[O]C(=O)C3)NCCCCCCNC(=O)C*; X6 = O=C(CN1CCN2CCN3CCN(CC1)CC(=O)[O][Lu]([O]C(=O)C2)[O]C(=O)C3)NCCOCCOCCOCCNC(=O)C*; Ala(piperidin-4-yl) = O=C([C@H](CC1CCN([*:3])CC1)N[*:1])[*:2]; dTrp(βS-Me) = C[C@@H](c1c[nH]c2ccccc12)[C@@H](N)C(=O)O; Gly(piperidin-4-yl) = N[C@H](C(=O)O)C1CCNCC1; X20 = CN(C[C@H](N[*:1])C(=O)[*:2])c1ccccc1; dNMeW = CN[C@H](Cc1c[nH]c2ccccc12)C(=O)O; Dip = N[C@H](C(=O)O)C(c1ccccc1)c1ccccc1; X25 = O=C([C@H](CC1CNC1)N[*:1])[*:2]; Gly(cPent) = N[C@H](C(=O)O)C1CCCC1; 4Pal = N[C@@H](Cc1ccncc1)C(=O)O; Gly(cBu) = N[C@H](C(=O)O)C1CCC1; Cha = N[C@@H](CC1CCCCC1)C(=O)O; Gly(cPr) = N[C@H](C(=O)O)C1CC1; NMehCys = CN[C@@H](CCS)C(=O)O; Cba = N[C@@H](CC1CCC1)C(=O)O; NMeK = CN[C@@H](CCCCN)C(=O)O; Phg = N[C@H](C(=O)O)c1ccccc1 Bounds are passed on as bounds.

SSTR2, sequence (P30874 whole entry): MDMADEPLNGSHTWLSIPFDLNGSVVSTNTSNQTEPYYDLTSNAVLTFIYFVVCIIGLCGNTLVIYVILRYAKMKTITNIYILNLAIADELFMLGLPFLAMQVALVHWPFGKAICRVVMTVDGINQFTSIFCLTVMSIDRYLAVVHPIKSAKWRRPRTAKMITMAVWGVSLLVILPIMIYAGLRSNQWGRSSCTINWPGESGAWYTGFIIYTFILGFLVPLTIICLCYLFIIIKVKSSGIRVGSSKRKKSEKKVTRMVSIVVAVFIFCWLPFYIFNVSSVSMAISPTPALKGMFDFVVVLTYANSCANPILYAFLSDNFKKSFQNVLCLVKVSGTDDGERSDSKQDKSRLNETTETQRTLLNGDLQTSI

The assay addresses SSTR2 (Homo sapiens, UniProt P30874). Description: SSTR binding affinity by radioligand binding competition assay ([125I]-Tyr11-Somatostatin, membrane extracts). The note with it: radioligand competition, [125I]-Tyr11-Somatostatin 0.1 nM, membrane extracts; Ki from IC50 by Cheng Prusoff; read-out: SSTR2 Ki. In general terms: Loss of bound radioactivity is the signal in a displacement assay; it reports binding, not function.
Broadly, the Ki is a dissociation constant, usually derived from enzyme kinetics or from competition with a known ligand. Consider `CN1C(=O)[C@H](Cc2ccccc2)NC(=O)[C@H](C2CCC2)NC(=O)[C@H](CCCCN)NC(=O)[C@@H](Cc2c[nH]c3ccccc23)NC(=O)[C@H](Cc2ccc(O)cc2)NC(=O)[C@@H]1CCSCC(=O)NCCCCCCNC(=O)CN1CCN2CCN3CCN(CC1)CC(=O)[O][Lu]([O]C(=O)C2)[O]C(=O)C3` [RB-0004540] (cyclo(F[NMehCys](DOTA(Lu)NH(CH2)6NHCOCH2)Y[dW]K[Gly(cBu)])), for which the Ki was < 1 nM.

With `CC(C)[C@@H]1NC(=O)[C@H](CCCCN)NC(=O)[C@@H]([C@@H](C)c2c[nH]c3ccccc23)NC(=O)[C@H](Cc2ccc(O)cc2)NC(=O)[C@H](CCSCC(=O)NCCCCCCNC(=O)CN2CCN3CCN4CCN(CC2)CC(=O)[O][Lu]([O]C(=O)C3)[O]C(=O)C4)N(C)C(=O)[C@H](Cc2ccccc2)NC1=O` [RB-0004609] (cyclo(F[NMehCys](DOTA(Lu)NH(CH2)6NHCOCH2)Y[dTrp(βS-Me)]KV)), the Ki is < 1 nM. For the compound `CC(C)[C@@H]1NC(=O)[C@H](CCCCN)N(C)C(=O)[C@@H](Cc2c[nH]c3ccccc23)N(C)C(=O)[C@H](Cc2ccc(O)cc2)NC(=O)[C@H](CCSCC(=O)NCCCCCCNC(=O)CN2CCN3CCN4CCN(CC2)CC(=O)[O][Lu]([O]C(=O)C3)[O]C(=O)C4)N(C)C(=O)[C@H](Cc2ccccc2)NC1=O` [RB-0004611] (cyclo(F[NMehCys](DOTA(Lu)NH(CH2)6NHCOCH2)Y[dNMeW][NMeK]V)), the Ki is < 1 nM. The result for `CC(C)[C@@H]1NC(=O)[C@H](CCCCN)NC(=O)[C@@H](Cc2c[nH]c3ccccc23)NC(=O)[C@H](C(c2ccccc2)c2ccccc2)NC(=O)[C@H](CCSCC(=O)NCCCCCCNC(=O)CN2CCN3CCN4CCN(CC2)CC(=O)[O][Lu]([O]C(=O)C3)[O]C(=O)C4)N(C)C(=O)[C@H](Cc2ccccc2)NC1=O` [RB-0004613] (cyclo([Dip][dW]KVF[NMehCys](DOTA(Lu)NH(CH2)6NHCOCH2))) reads < 1 nM. Turning to `CC(C)[C@@H]1NC(=O)[C@H](CCCCN)NC(=O)[C@@H](Cc2c[nH]c3ccccc23)NC(=O)[C@H](Cc2ccc(O)cc2)NC(=O)[C@H](CCSCC(=O)NCCCCCCNC(=O)CN2CCN3CCN4CCN(CC2)CC(=O)[O][Lu]([O]C(=O)C3)[O]C(=O)C4)N(C)C(=O)[C@H](CN(C)c2ccccc2)NC1=O` [RB-0004615] (cyclo(KV[X20][NMehCys](DOTA(Lu)NH(CH2)6NHCOCH2)Y[dW])), the Ki is < 1 nM.

In the case of `CC(C)[C@@H]1NC(=O)[C@H](CCCCN)NC(=O)[C@@H](Cc2c[nH]c3ccccc23)NC(=O)[C@H](Cc2ccc(O)cc2)NC(=O)[C@H](CCSCC(=O)NCCCCCCNC(=O)CN2CCN3CCN4CCN(CC2)CC(=O)[O][Lu]([O]C(=O)C3)[O]C(=O)C4)N(C)C(=O)[C@H](CC2CCCCC2)NC1=O` [RB-0004617] (cyclo([Cha][NMehCys](DOTA(Lu)NH(CH2)6NHCOCH2)Y[dW]KV)), the Ki was 1 to 3.33 nM. The result for `CO[C@H](C)[C@@H]1NC(=O)[C@H](CCCCN)NC(=O)[C@@H](Cc2c[nH]c3ccccc23)NC(=O)[C@H](Cc2ccc(O)cc2)NC(=O)[C@H](CCSCC(=O)NCCCCCCNC(=O)CN2CCN3CCN4CCN(CC2)CC(=O)[O][Lu]([O]C(=O)C3)[O]C(=O)C4)N(C)C(=O)[C@H](Cc2ccccc2)NC1=O` [RB-0004619] reads < 1 nM; that for `CN1C(=O)[C@H](Cc2ccccc2)NC(=O)[C@H](CC2CCC2)NC(=O)[C@H](CCCCN)NC(=O)[C@@H](Cc2c[nH]c3ccccc23)NC(=O)[C@H](Cc2ccc(O)cc2)NC(=O)[C@@H]1CCSCC(=O)NCCCCCCNC(=O)CN1CCN2CCN3CCN(CC1)CC(=O)[O][Lu]([O]C(=O)C2)[O]C(=O)C3` [RB-0004621] (cyclo([Cba]F[NMehCys](DOTA(Lu)NH(CH2)6NHCOCH2)Y[dW]K)), < 1 nM; that for `CN1C(=O)[C@H](Cc2ccccc2)NC(=O)[C@H](C2CCCC2)NC(=O)[C@H](CCCCN)NC(=O)[C@@H](Cc2c[nH]c3ccccc23)NC(=O)[C@H](Cc2ccc(O)cc2)NC(=O)[C@@H]1CCSCC(=O)NCCCCCCNC(=O)CN1CCN2CCN3CCN(CC1)CC(=O)[O][Lu]([O]C(=O)C2)[O]C(=O)C3` [RB-0004623] (cyclo(F[NMehCys](DOTA(Lu)NH(CH2)6NHCOCH2)Y[dW]K[Gly(cPent)])), < 1 nM.

With `C[C@@H](O)[C@@H]1NC(=O)[C@H](CCCCN)NC(=O)[C@@H](Cc2c[nH]c3ccccc23)NC(=O)[C@H](Cc2ccc(O)cc2)NC(=O)[C@H](CCSCC(=O)NCCCCCCNC(=O)CN2CCN3CCN4CCN(CC2)CC(=O)[O][Lu]([O]C(=O)C3)[O]C(=O)C4)N(C)C(=O)CNC1=O` [RB-0004819] (cyclo(G[NMehCys](DOTA(Lu)NH(CH2)6NHCOCH2)Y[dW]KT)), the Ki is < 1 nM.

As for `C[C@@H](O)[C@@H]1NC(=O)[C@H](CCCCN)NC(=O)[C@@H](Cc2c[nH]c3ccccc23)NC(=O)[C@H](Cc2ccc(O)cc2)NC(=O)[C@H](CCSCC(=O)NCCCCCCNC(=O)CN2CCN3CCN4CCN(CC2)CC(=O)[O][Lu]([O]C(=O)C3)[O]C(=O)C4)N(C)C(=O)[C@H](c2ccccc2)NC1=O` [RB-0004821] (cyclo(KT[Phg][NMehCys](DOTA(Lu)NH(CH2)6NHCOCH2)Y[dW])), the Ki lay in the range of 1 to 3.33 nM. In the case of `CC(C)[C@@H]1NC(=O)[C@H](CCCCN)NC(=O)[C@@H](Cc2c[nH]c3ccccc23)NC(=O)[C@H](Cc2ccc(O)cc2)NC(=O)[C@H](CCSCC(=O)NCCOCCOCCOCCNC(=O)CN2CCN3CCN4CCN(CC2)CC(=O)[O][Lu]([O]C(=O)C3)[O]C(=O)C4)N(C)C(=O)[C@H](Cc2ccccc2)NC1=O` [RB-0004823] (cyclo(F[NMehCys](X6)Y[dW]KV)) it was < 1 nM; in that of `CC(C)[C@@H]1NC(=O)[C@H](CCCCN)NC(=O)[C@@H]([C@@H](C)c2c[nH]c3ccccc23)NC(=O)[C@H](Cc2ccncc2)NC(=O)[C@H](CCSCC(=O)NCCCCCCNC(=O)CN2CCN3CCN4CCN(CC2)CC(=O)[O][Lu]([O]C(=O)C3)[O]C(=O)C4)N(C)C(=O)[C@H](Cc2ccccc2)NC1=O` [RB-0004825] (cyclo([4Pal][dTrp(βS-Me)]KVF[NMehCys](DOTA(Lu)NH(CH2)6NHCOCH2))), < 1 nM; in that of `C[C@@H](O)[C@@H]1NC(=O)[C@H](CC2CCNCC2)NC(=O)[C@@H](Cc2c[nH]c3ccccc23)NC(=O)[C@H](Cc2ccc(O)cc2)NC(=O)[C@H](CCSCC(=O)NCCCCCCNC(=O)CN2CCN3CCN4CCN(CC2)CC(=O)[O][Lu]([O]C(=O)C3)[O]C(=O)C4)N(C)C(=O)[C@H](Cc2ccccc2)NC1=O` [RB-0004864] (cyclo(F[NMehCys](DOTA(Lu)NH(CH2)6NHCOCH2)Y[dW][Ala(piperidin-4-yl)]T)), 1 to 3.33 nM. On to `C[C@@H](O)[C@@H]1NC(=O)[C@H](CC2CNC2)NC(=O)[C@@H](Cc2c[nH]c3ccccc23)NC(=O)[C@H](Cc2ccc(O)cc2)NC(=O)[C@H](CCSCC(=O)NCCCCCCNC(=O)CN2CCN3CCN4CCN(CC2)CC(=O)[O][Lu]([O]C(=O)C3)[O]C(=O)C4)N(C)C(=O)[C@H](Cc2ccccc2)NC1=O` [RB-0004866] (cyclo(F[NMehCys](DOTA(Lu)NH(CH2)6NHCOCH2)Y[dW][X25]T)), for which the Ki fell in the range of 10 to 33.3 nM. Consider `C[C@@H](O)[C@@H]1NC(=O)[C@H](C2CCNCC2)NC(=O)[C@@H](Cc2c[nH]c3ccccc23)NC(=O)[C@H](Cc2ccc(O)cc2)NC(=O)[C@H](CCSCC(=O)NCCCCCCNC(=O)CN2CCN3CCN4CCN(CC2)CC(=O)[O][Lu]([O]C(=O)C3)[O]C(=O)C4)N(C)C(=O)[C@H](Cc2ccccc2)NC1=O` [RB-0004868] (cyclo(F[NMehCys](DOTA(Lu)NH(CH2)6NHCOCH2)Y[dW][Gly(piperidin-4-yl)]T)), for which the Ki was in the range of 3.33 to 10 nM. For `CC(C)[C@@H]1NC(=O)[C@H](CCCCN)NC(=O)[C@@H](Cc2c[nH]c3ccccc23)NC(=O)[C@H](Cc2ccc(O)cc2)NC(=O)[C@H](CCSCC(=O)NCCCCCCNC(=O)CN2CCN3CCN4CCN(CC2)CC(=O)[O][Lu]([O]C(=O)C3)[O]C(=O)C4)N(C)C(=O)[C@H](C2CC2)NC1=O` [RB-0005247] (cyclo([Gly(cPr)][NMehCys](DOTA(Lu)NH(CH2)6NHCOCH2)Y[dW]KV)), the Ki is 3.33 to 10 nM. For `CC(C)[C@@H]1NC(=O)[C@H](CCCCN)NC(=O)[C@@H](Cc2c[nH]c3ccccc23)NC(=O)[C@H](Cc2ccc(O)cc2)NC(=O)[C@H](CCSCC(=O)NCCCCCCNC(=O)CN2CCN3CCN4CCN(CC2)CC(=O)[O][Lu]([O]C(=O)C3)[O]C(=O)C4)N(C)C(=O)[C@H](CC(N)=O)NC1=O` [RB-0005253] (cyclo(KVN[NMehCys](DOTA(Lu)NH(CH2)6NHCOCH2)Y[dW])), the Ki is 3.33 to 10 nM. As for `CC(C)[C@@H]1NC(=O)[C@H](CCCCN)NC(=O)[C@@H](Cc2c[nH]c3ccccc23)NC(=O)[C@H](Cc2ccc(O)cc2)NC(=O)[C@H](CCSCC(=O)NCCCCCCNC(=O)CN2CCN3CCN4CCN(CC2)CC(=O)[O][Lu]([O]C(=O)C3)[O]C(=O)C4)N(C)C(=O)[C@H](Cc2cnc[nH]2)NC1=O` [RB-0005255] (cyclo(H[NMehCys](DOTA(Lu)NH(CH2)6NHCOCH2)Y[dW]KV)), the Ki lay in the range of 1 to 3.33 nM. In the case of `CC(C)[C@@H]1NC(=O)[C@H](CCCCN)NC(=O)[C@@H](Cc2c[nH]c3ccccc23)NC(=O)[C@H](Cc2ccc(O)cc2)NC(=O)[C@H](CCSCC(=O)NCCCCCCNC(=O)CN2CCN3CCN4CCN(CC2)CC(=O)[O][Lu]([O]C(=O)C3)[O]C(=O)C4)N(C)C(=O)[C@H](C)NC1=O` [RB-0005266] (cyclo(A[NMehCys](DOTA(Lu)NH(CH2)6NHCOCH2)Y[dW]KV)), the Ki is < 1 nM.

For `CC(C)[C@@H]1NC(=O)[C@H](CCCCN)NC(=O)[C@@H](Cc2c[nH]c3ccccc23)NC(=O)[C@H](Cc2ccc(O)cc2)NC(=O)[C@H](CCSCC(=O)NCCCCCCNC(=O)CN2CCN3CCN4CCN(CC2)CC(=O)[O][Lu]([O]C(=O)C3)[O]C(=O)C4)N(C)C(=O)[C@H](CO)NC1=O` [RB-0005270] (cyclo(KVS[NMehCys](DOTA(Lu)NH(CH2)6NHCOCH2)Y[dW])), the Ki was < 1 nM. The result for `C[C@@H](O)[C@@H]1NC(=O)[C@H](CCCCN)NC(=O)[C@@H](Cc2c[nH]c3ccccc23)NC(=O)[C@H](Cc2ccc(O)cc2)NC(=O)[C@H](CCSCC(=O)NCCOCCOCCNC(=O)CN2CCN3CCN4CCN(CC2)CC(=O)[O][Lu]([O]C(=O)C3)[O]C(=O)C4)N(C)C(=O)[C@H](Cc2ccccc2)NC1=O` [RB-0005272] reads < 1 nM.
